Test results published in PMC8700221, “Long-Term Treatment with Atypical Antipsychotic Iloperidone Modulates Cytochrome P450 2D (CYP2D) Expression and Activity in the Liver and Brain via Different Mechanisms” (Cells, 2021).

Legend:
Assay type in all cases: biochemical
[1] = system: T1, CYP2D (rat brain microsomes); experiment: bufuralol […]'-hydroxylation in whole-brain microsomes, HPLC with fluorometric detection; conditions: NADPH-generating system; 2 mg protein/mL; no inhibitor; CYP2D isoenzymes mixed
T1 construct: gene Cyp2d4; native enzymes in pooled whole-brain microsomes of control male rats (n = 10); CYP2D4 named main brain form

[2] = system: T2, CYP2D (rat liver microsomes); experiment: bufuralol […]'-hydroxylation in liver microsomes, HPLC with fluorometric detection; conditions: NADPH-generating system; 0.5 mg protein/mL; no inhibitor; CYP2D isoenzymes mixed
T2 construct: gene Cyp2d1; native enzymes in pooled liver microsomes of control male rats (n = 10); CYP2D1 and CYP2D2 named most abundant in liver

[3] = biological target: T2, CYP2D (rat liver microsomes); experiment: bufuralol […]'-hydroxylation in liver microsomes, HPLC with fluorometric detection, Dixon plot; conditions: competitive; bufuralol 5, 10 and 20 µM; iloperidone 1-250 µM; 0.5 mg protein/mL; NADPH-generating system; CYP2D isoenzymes mixed
[4] = biological target: T1, CYP2D (rat brain microsomes); experiment: bufuralol […]'-hydroxylation in whole-brain microsomes, HPLC with fluorometric detection, Dixon plot; conditions: competitive; bufuralol 50, 100 and 200 µM; iloperidone 25-500 µM; 2 mg protein/mL; NADPH-generating system; CYP2D isoenzymes mixed

| Km [1] [µM] | Km [2] [µM] | Ki [3] [µM] | Ki [4] [µM] | Structure (SMILES) |
| --- | --- | --- | --- | --- |
| 492 | 8.26 | – | – | CCc1cccc2cc(C(O)CNC(C)(C)C)oc12 (stereo not shown) [bufuralol] |
| – | – | 11.5 | 462 | COc1cc(C(C)=O)ccc1OCCCN1CCC(c2noc3cc(F)ccc23)CC1 [iloperidone] |
